From ChEMBL document CHEMBL5608189, “Design and synthesis of unique indole-benzosulfonamide oleanolic acid derivatives as potent antibacterial agents against MRSA” (Eur J Med Chem, 2024)
Converted amounts (≈) assume the structure as drawn. The source made the active and inactive calls. No cut-off for these calls is given here.

Tests used:
[1] = tested on: Staphylococcus aureus; assay: Antibacterial activity against methicillin-resistant Staphylococcus aureus assessed as inhibition of bacterial growth at 2 to 4 times MIC measured every 2 hrs for 24 hrs by time kill assay relative to control; type: functional
[2] = tested on: Staphylococcus aureus; assay: Antibacterial activity against Staphylococcus aureus ATCC 6538 assessed as inhibition of bacterial growth at 1 times MIC measured every 2 hrs for 24 hrs by time kill assay; type: functional, organism-based
[3] = tested on: Staphylococcus aureus; assay: Antibacterial activity against Staphylococcus aureus ATCC 6538 measured after 24 hrs by susceptibility assay; type: functional
[4] = tested on: Staphylococcus epidermidis; assay: Bactericidal activity against Staphylococcus epidermidis ATCC 12228 measured after 24 hrs; type: functional
[5] = tested on: Staphylococcus aureus; assay: Antibacterial activity against methicillin-resistant Staphylococcus aureus assessed as delay in bacterial growth at 0.5 times MIC measured every 2 hrs for 24 hrs by time kill assay; type: functional, organism-based
[6] = tested on: Staphylococcus epidermidis; assay: Antibacterial activity against Staphylococcus epidermidis ATCC 12228 assessed as inhibition of bacterial growth at 1 times MIC measured every 2 hrs for 24 hrs by time kill assay; type: functional, organism-based
[7] = tested on: Staphylococcus aureus; assay: Antibacterial activity against methicillin-resistant Staphylococcus aureus assessed as inhibition of bacterial growth at 1 times MIC measured every 2 hrs for 24 hrs by time kill assay; type: functional, organism-based
[8] = Hemolytic activity in rabbit red blood cells assessed as hemolytic rate at 128 times MIC measured after 1 hr by absorbance based method relative to control; type: toxicity, cell-based, Oryctolagus cuniculus, Erythrocyte; settings: rabbit red blood cells (erythrocytes), read-out: Activity
[9] = tested on: Staphylococcus epidermidis; assay: Antibacterial activity against Staphylococcus epidermidis ATCC 12228 measured after 24 hrs by susceptibility assay; type: functional
[10] = tested on: Staphylococcus aureus; assay: Bactericidal activity against Staphylococcus aureus ATCC 6538 measured after 24 hrs; type: functional
[11] = tested on: Staphylococcus aureus; assay: Antibacterial activity against methicillin-resistant Staphylococcus aureus measured after 24 hrs by susceptibility assay; type: functional
[12] = tested on: Staphylococcus aureus; assay: Bactericidal activity against methicillin-resistant Staphylococcus aureus measured after 24 hrs; type: functional
[13] = tested on: Staphylococcus aureus; assay: Antibacterial activity against Staphylococcus aureus ATCC 29213 measured after 24 hrs by susceptibility assay; type: functional
[14] = tested on: Staphylococcus aureus; assay: Resistant development in methicillin-resistant Staphylococcus aureus assessed as increase in MIC at sub-MIC measured after 20 passages; type: functional, organism-based
[15] = tested on: Staphylococcus aureus; assay: Antibacterial activity against Staphylococcus aureus ATCC 6538 assessed as inhibition of bacterial growth at 2 to 4 times MIC measured every 2 hrs for 24 hrs by time kill assay relative to control; type: functional
[16] = tested on: Staphylococcus aureus; assay: Antibacterial activity against Staphylococcus aureus ATCC 6538 assessed as delay in bacterial growth at 0.5 times MIC measured every 2 hrs for 24 hrs by time kill assay; type: functional, organism-based
[17] = tested on: Staphylococcus epidermidis; assay: Antibacterial activity against Staphylococcus epidermidis ATCC 12228 assessed as inhibition of bacterial growth at 2 to 4 times MIC measured every 2 hrs for 24 hrs by time kill assay relative to control; type: functional
[18] = tested on: Staphylococcus epidermidis; assay: Antibacterial activity against Staphylococcus epidermidis ATCC 12228 assessed as delay in bacterial growth at 0.5 times MIC measured every 2 hrs for 24 hrs by time kill assay; type: functional, organism-based
[19] = tested on: Staphylococcus aureus; assay: Bactericidal activity against Staphylococcus aureus ATCC 29213 measured after 24 hrs; type: functional
[20] = tested on: Staphylococcus aureus; assay: Induction of morphological changes in methicillin-resistant Staphylococcus aureus assessed as appearance of wrinkled and depressed cell membrane surface at 8 times MIC incubated for 8 hrs by SEM analysis; type: functional, organism-based
[21] = tested on: Staphylococcus aureus; assay: Induction of morphological changes in methicillin-resistant Staphylococcus aureus assessed as disruption of cellular structure at 8 times MIC incubated for 8 hrs by SEM analysis; type: functional, organism-based

In the case of Cc1ccc(S(=O)(=O)NC(=O)[C@]23CCC(C)(C)C[C@H]2C2=CC[C@@H]4[C@@]5(C)Cc6c([nH]c7c(C(=O)O)cccc67)C(C)(C)[C@@H]5CC[C@@]4(C)[C@]2(C)CC3)cc1, the “inhibition (INH)” value [1] is reported as 100%, the Activity [2] is reported as “Active” and the MIC [3] is reported as 1 µM (≈ 0.725 µg/mL). The MBC [4] was 4 µM (≈ 2.9 µg/mL), the Activity [5] was “Active” and the Activity [6] was “Active”. For the same compound, the Activity [7] was “Active”, the hemolysis at 1 h, 128 times MIC [8] was < 5% and the MIC [9] was 2 µM (≈ 1.45 µg/mL). The MBC [10] was 2 µM (≈ 1.45 µg/mL), the MIC [11] was 2 µM (≈ 1.45 µg/mL) and the MBC [12] was 16 µM (≈ 11.6 µg/mL). The MIC [13] was 2 µM (≈ 1.45 µg/mL), the Activity [14] was “inactive” and the “inhibition (INH)” value [15] was 100%. The Activity [16] was “Active”, the “inhibition (INH)” value [17] was 100% and the Activity [18] was “Active”. For the same compound, the MBC [19] was 2 µM (≈ 1.45 µg/mL).

With CCn1cc(C(=O)O)c(=O)c2cc(F)c(N3CCNCC3)cc21 [NORFLOXACIN] the MIC [3] was 2 µM (≈ 0.639 µg/mL), the Activity [20] was “Active” and the MIC [9] was 1 µM (≈ 0.319 µg/mL). For the same compound, the MIC [11] was 4 µM (≈ 1.28 µg/mL), the Activity [21] was “inactive” and the MIC [13] was 2 µM (≈ 0.639 µg/mL).
